From publication PMC9118553, “In Vivo Bioconcentration of 10 Anionic Surfactants in Rainbow Trout Explained by In Vitro Data on Partitioning and S9 Clearance” (Environmental Science & Technology, 2022)
Values joined by “and” are separate entries in the source; they are usually repeats but may differ in a detail not shown here. Identical values can stand only once. Like-named read-outs stand apart in the source and are kept apart here. Marks after values point to notes of the source that are not given here.

Legend:
[1] = cited from earlier work; for log DMW, membrane-water distribution ratio: marked * = measured, used for IVIVE, same values as Table 3
rainbow trout = test: In vivo bioconcentration experiment with a mixture of anionic surfactants, flow-through aquaria, 10 °C, pH 7.8; conditions: for Log BCF: determined with measured concentrations in water; for Concentration in fish: individual fish; for BCF (kinetic): kinetic BCF from measured concentrations in water;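 on Uptake rate constant kU: L kg-1 h-1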
Procedure, shortened: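 Juvenile rainbow trout exposed to a 10-surfactant mixture for 4 days, then 7-day depuration, in flow-through aquaria at 10 °C, pH 7.8. Whole-fish homogenates and water analysed by LC-MS/MS against BEHP internal standard. kU, kT and BCF (=kU/kT) estimated by joint Bayesian model including water-concentration uncertainty.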

[2] = Baseline screening BCF (0.0125 DMLW, equilibrium partitioning, no biotransformation); conditions: for Log baseline BCF: determined as 0.0125 DMLW
Procedure, shortened: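 Calculated rather than measured: baseline screening BCF derived as 0.0125 × DMLW (membrane-lipid/water distribution ratio), assuming equilibrium partitioning and no biotransformation. Expressed as log L kg-1 wet weight.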

[3] = from measured concentrations in water, Bayesian estimate, 95% credible interval in brackets
[4] = 95% credible interval in brackets
[5] = measured concentrations in water, simpler estimation method (Text S3), 95% confidence intervals in brackets
[6] = determined using nominal concentrations in water

CCCCCCCCCCCCCCCCS(=O)(=O)O [C16SO3, hexadecylsulfonate]
log DMW, membrane-water distribution ratio [1]: 6.19
Uptake rate constant kU (rainbow trout): 6.3 L kg^–1 h^–1
Log BCF (rainbow trout): 3.14 L kg-1 ww
Concentration in fish (rainbow trout; elimination phase, 97 h): 4206 ng g-1 ww and 4275 ng g-1 ww and 4280 ng g-1 ww
Concentration in fish (rainbow trout; elimination phase, 98 h): 3644 ng g-1 ww and 3202 ng g-1 ww and 3035 ng g-1 ww
Concentration in fish (rainbow trout; elimination phase, 100 h): 4355 ng g-1 ww and 3469 ng g-1 ww and 3603 ng g-1 ww
Concentration in fish (rainbow trout; elimination phase, 103 h): 3251 ng g-1 ww and 4192 ng g-1 ww and 3692 ng g-1 ww
Concentration in fish (rainbow trout; elimination phase, 120 h): 2630 ng g-1 ww and 4641 ng g-1 ww and 2805 ng g-1 ww
Concentration in fish (rainbow trout; elimination phase, 128 h): 3635 ng g-1 ww and 2712 ng g-1 ww and 2831 ng g-1 ww
Concentration in fish (rainbow trout; elimination phase, 144 h): 2859 ng g-1 ww and 2503 ng g-1 ww and 3401 ng g-1 ww
Concentration in fish (rainbow trout; elimination phase, 168 h): 2804 ng g-1 ww and 2276 ng g-1 ww and 2244 ng g-1 ww
Concentration in fish (rainbow trout; elimination phase, 192 h): 1669 ng g-1 ww and 1852 ng g-1 ww and 2440 ng g-1 ww
Concentration in fish (rainbow trout; elimination phase, 264 h): 1420 ng g-1 ww and 2150 ng g-1 ww and 967 ng g-1 ww
Concentration in fish (rainbow trout; exposure phase, 1 h): 440 ng g-1 ww and 319 ng g-1 ww and 614 ng g-1 ww
Concentration in fish (rainbow trout; exposure phase, 2 h): 300 ng g-1 ww and 304 ng g-1 ww and 147 ng g-1 ww
Concentration in fish (rainbow trout; exposure phase, 3 h): 347 ng g-1 ww and 392 ng g-1 ww and 451 ng g-1 ww
Concentration in fish (rainbow trout; exposure phase, 4 h): 510 ng g-1 ww and 1310 ng g-1 ww and 2283 ng g-1 ww
Concentration in fish (rainbow trout; exposure phase, 6 h): 557 ng g-1 ww and 678 ng g-1 ww and 649 ng g-1 ww
Concentration in fish (rainbow trout; exposure phase, 24 h): 2045 ng g-1 ww and 1698 ng g-1 ww and 1479 ng g-1 ww
Concentration in fish (rainbow trout; exposure phase, 48 h): 3941 ng g-1 ww and 3596 ng g-1 ww and 1879 ng g-1 ww
Concentration in fish (rainbow trout; exposure phase, 72 h): 1532 ng g-1 ww and 3782 ng g-1 ww and 3167 ng g-1 ww
Concentration in fish (rainbow trout; exposure phase, 96 h): 3775 ng g-1 ww and 5248 ng g-1 ww and 3695 ng g-1 ww
Elimination rate constant kT (rainbow trout; [3]): 0.0047 (0.0026–0.0062) h^–1
Uptake rate constant kU (rainbow trout; [3]): 6.3 (5.3–7.4) L kg^–1 ww h^–1
diffusion coefficient (D) in the epithelial membrane of the gills (rainbow trout; in vivo): 1.6 × 10^–8 m h^–1
BCF (kinetic) (rainbow trout; [4]): 1370 (1070–2200) L kg^–1 ww
BCF (rainbow trout; [5]): 1480 (14) L kg-1 ww
Elimination rate constant kT (rainbow trout; [5]): 0.0073 (10) h-1
Uptake rate constant kU (rainbow trout; [5]): 10.8 (10) L kg-1 ww h-1
Log difference (baseline BCF vs BCF) [2]: 1.15 L kg-1 ww
Log baseline BCF [2]: 4.29 L kg-1 ww

CCCCC(CC)COC(=O)CC(C(=O)OCC(CC)CCCC)S(=O)(=O)O (stereo not shown) [DOSS, bis(2-ethylhexyl)sulfosuccinate]
log DMW, membrane-water distribution ratio [1]: 4.58
log DMLW ([1]; measurement from Droge et al.): 4.58 ^f L kg^–1
Uptake rate constant kU (rainbow trout): 0.090 L kg^–1 h^–1
BCF (rainbow trout; [6]): 3.0 L kg-1 ww
Uptake rate constant kU (rainbow trout; [6]): 0.169 L/kg/h
Log BCF (rainbow trout): 0.15 L kg-1 ww
Concentration in fish (rainbow trout; elimination phase, 97 h): 69 ng g-1 ww and 70 ng g-1 ww
Concentration in fish (rainbow trout; elimination phase, 98 h): 25 ng g-1 ww and 34 ng g-1 ww
Concentration in fish (rainbow trout; elimination phase, 100 h): 92 ng g-1 ww and 49 ng g-1 ww and 45 ng g-1 ww
Concentration in fish (rainbow trout; elimination phase, 103 h): 35 ng g-1 ww and 33 ng g-1 ww
Concentration in fish (rainbow trout; elimination phase, 120 h): 14.2 ng g-1 ww and 36 ng g-1 ww and 13.5 ng g-1 ww
Concentration in fish (rainbow trout; elimination phase, 128 h): 15.7 ng g-1 ww and 17.8 ng g-1 ww
Concentration in fish (rainbow trout; elimination phase, 144 h): 4.1 ng g-1 ww and 6.4 ng g-1 ww and 24 ng g-1 ww
Concentration in fish (rainbow trout; elimination phase, 168 h): 2.3 ng g-1 ww and 7.9 ng g-1 ww and 3.0 ng g-1 ww
Concentration in fish (rainbow trout; elimination phase, 192 h): 0.75 ng g-1 ww and 4.2 ng g-1 ww and 0.92 ng g-1 ww
Concentration in fish (rainbow trout; elimination phase, 264 h): 4.5 ng g-1 ww and 2.9 ng g-1 ww and 0.40 ng g-1 ww
Concentration in fish (rainbow trout; exposure phase, 1 h): 10.9 ng g-1 ww and 5.8 ng g-1 ww and 17.8 ng g-1 ww
Concentration in fish (rainbow trout; exposure phase, 2 h): 11.0 ng g-1 ww and 7.5 ng g-1 ww
Concentration in fish (rainbow trout; exposure phase, 3 h): 17.4 ng g-1 ww and 15.2 ng g-1 ww
Concentration in fish (rainbow trout; exposure phase, 4 h): 21 ng g-1 ww and 42 ng g-1 ww and 106 ng g-1 ww
Concentration in fish (rainbow trout; exposure phase, 6 h): 32 ng g-1 ww and 25 ng g-1 ww
Concentration in fish (rainbow trout; exposure phase, 24 h): 59 ng g-1 ww and 41 ng g-1 ww
Concentration in fish (rainbow trout; exposure phase, 48 h): 66 ng g-1 ww and 56 ng g-1 ww
Concentration in fish (rainbow trout; exposure phase, 72 h): 59 ng g-1 ww and 78 ng g-1 ww
Concentration in fish (rainbow trout; exposure phase, 96 h): 62 ng g-1 ww and 67 ng g-1 ww
Uptake rate constant kU (rainbow trout; [3]): 0.090 (0.074–0.110) L kg^–1 ww h^–1
BCF (kinetic) (rainbow trout; [4]): 1.42 (1.22–1.66) L kg^–1 ww
BCF (rainbow trout; [5]): 1.37 (14) L kg-1 ww
Uptake rate constant kU (rainbow trout; [5]): 0.088 (9) L kg-1 ww h-1
BCF (rainbow trout; own values): 1.42 L kg^–1
diffusion coefficient (D) in the epithelial membrane of the gills (rainbow trout; solved from eq 3 with kU, DMLW, gill area, fish 0.024 kg, membrane density 1 kg L^–1): 9.3 × 10^–9 m h^–1
Log difference (baseline BCF vs BCF) [2]: 2.53 L kg-1 ww
Log baseline BCF [2]: 2.68 L kg-1 ww
